Experimental data: patent publication US10689378B2, “Triazolopyridine compounds and uses thereof” (Novartis AG, priority 2016, dated 2020)
Like-named read-outs stand apart in the source and are kept apart here.

How the values were obtained:
[1] = biological target: wild type PRC2 (wtPRC2) complex (Homo sapiens, UniProt O75530); assay: EED LC-MS assay (SAH production by PRC2); format: biochemical
Summary of the method: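 LC-MS/MS readout of SAH (d4-SAH standard) after TFA quench gives PRC2 activity, normalized to controls and fitted to dose-response for IC50. Reaction: 12 nM EZH2/SUZ12/EED/Rbap48/AEBP complex, 1 μM SAM, 1.5 μM H3[21-44] peptide, 120 min rt, 20 min compound preincubation.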

[2] = tested on: H3K27 methylation in G401 cell; assay: ELISA (H3K27 methylation) assay in G401 cells; format: cell-based, human; conditions: Homo sapiens
Summary of the method: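 IC50 from dose-response fit of percent inhibition relative to DMSO, using H3K27me3/me2 ELISA signal (ECL) normalized to histone H3. Histones HCl-extracted after 48 h compound exposure of G401 cells at up to 20 μM, 8- or 12-point 3-fold series.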

EED (1-441)-His protein = biological target: T1, EED (1-441)-His protein (Homo sapiens, UniProt O75530); assay: EED-H3K27Me3 peptide competition binding assay by AlphaScreen
T1 construct: 30 nM EED (1-441)-His protein
T1 sequence (O75530 whole entry): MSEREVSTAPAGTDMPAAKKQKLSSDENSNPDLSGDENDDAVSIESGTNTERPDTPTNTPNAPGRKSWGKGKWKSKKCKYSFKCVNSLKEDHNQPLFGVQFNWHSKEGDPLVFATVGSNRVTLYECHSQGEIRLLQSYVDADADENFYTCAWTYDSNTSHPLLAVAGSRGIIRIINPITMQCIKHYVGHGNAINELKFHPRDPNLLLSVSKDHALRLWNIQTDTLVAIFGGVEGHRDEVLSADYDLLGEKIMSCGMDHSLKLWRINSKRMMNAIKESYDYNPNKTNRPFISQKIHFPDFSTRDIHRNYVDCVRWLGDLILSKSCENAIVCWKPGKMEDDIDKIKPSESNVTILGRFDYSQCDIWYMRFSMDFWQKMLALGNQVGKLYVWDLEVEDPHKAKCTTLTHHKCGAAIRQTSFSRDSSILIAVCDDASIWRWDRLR
Summary of the method: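 Serially diluted compound (12 points, 3-fold) incubated 20 min with 30 nM EED(1-441)-His and 15 nM biotin-H3K27Me3(19-33) peptide in 25 mM HEPES pH 8, 0.02% Tween-20, 0.5% BSA. Ni-chelate acceptor/streptavidin donor beads (10 μg/mL each) added, 1 h rt dark; 615 nm emission normalized to controls, dose-response fit for IC50.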

[3] = PRC2 LC-MS assay, read-out: (b) IC50 EED LC-MS Qualified
[4] = G-401, H3K27 methylation ELISA, read-out: (c) IC50 ELISA Qualified
[5] = EED-H3K27Me3 peptide competition, AlphaScreen, read-out: (a) IC50 EED Alphascreen binding Qualified
[6] = read-out: (b) IC50, EED LC-MS Qualified
[7] = G-401, read-out: (c) IC50, ELISA Qualified
[8] = read-out: (a) IC50, EED Alphascreen binding Qualified
[9] = read-out: (b) IC50 EED LC-MS Qualified
[10] = G-401, read-out: (c) IC50 ELISA Qualified
[11] = read-out: (a) IC50 EED Alphascreen binding Qualified

Chain of wild type PRC2 (wtPRC2) complex (O75530 whole entry): as above
Chain of wild type PRC2 (wtPRC2) complex (Q15910 whole entry partner): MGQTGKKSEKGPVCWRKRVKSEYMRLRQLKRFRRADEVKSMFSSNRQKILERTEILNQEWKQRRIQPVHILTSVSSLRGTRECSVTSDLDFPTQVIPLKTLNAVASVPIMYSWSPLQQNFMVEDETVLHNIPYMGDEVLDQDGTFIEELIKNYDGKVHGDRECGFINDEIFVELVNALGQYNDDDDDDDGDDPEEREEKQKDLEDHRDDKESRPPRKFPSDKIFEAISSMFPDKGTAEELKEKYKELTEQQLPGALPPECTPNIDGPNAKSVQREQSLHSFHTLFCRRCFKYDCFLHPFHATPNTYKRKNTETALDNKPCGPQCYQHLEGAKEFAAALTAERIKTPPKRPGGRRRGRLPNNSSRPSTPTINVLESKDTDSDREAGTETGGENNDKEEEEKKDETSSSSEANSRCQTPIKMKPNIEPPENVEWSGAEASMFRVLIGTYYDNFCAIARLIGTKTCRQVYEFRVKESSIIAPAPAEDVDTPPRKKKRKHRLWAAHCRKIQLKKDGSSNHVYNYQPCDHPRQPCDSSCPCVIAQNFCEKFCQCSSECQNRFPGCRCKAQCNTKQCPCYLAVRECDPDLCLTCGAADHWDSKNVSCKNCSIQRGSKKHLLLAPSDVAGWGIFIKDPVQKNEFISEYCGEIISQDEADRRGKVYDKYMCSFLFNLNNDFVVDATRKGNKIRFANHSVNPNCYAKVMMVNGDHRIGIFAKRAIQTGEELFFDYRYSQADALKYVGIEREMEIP
Chain of wild type PRC2 (wtPRC2) complex (Q15022 whole entry partner): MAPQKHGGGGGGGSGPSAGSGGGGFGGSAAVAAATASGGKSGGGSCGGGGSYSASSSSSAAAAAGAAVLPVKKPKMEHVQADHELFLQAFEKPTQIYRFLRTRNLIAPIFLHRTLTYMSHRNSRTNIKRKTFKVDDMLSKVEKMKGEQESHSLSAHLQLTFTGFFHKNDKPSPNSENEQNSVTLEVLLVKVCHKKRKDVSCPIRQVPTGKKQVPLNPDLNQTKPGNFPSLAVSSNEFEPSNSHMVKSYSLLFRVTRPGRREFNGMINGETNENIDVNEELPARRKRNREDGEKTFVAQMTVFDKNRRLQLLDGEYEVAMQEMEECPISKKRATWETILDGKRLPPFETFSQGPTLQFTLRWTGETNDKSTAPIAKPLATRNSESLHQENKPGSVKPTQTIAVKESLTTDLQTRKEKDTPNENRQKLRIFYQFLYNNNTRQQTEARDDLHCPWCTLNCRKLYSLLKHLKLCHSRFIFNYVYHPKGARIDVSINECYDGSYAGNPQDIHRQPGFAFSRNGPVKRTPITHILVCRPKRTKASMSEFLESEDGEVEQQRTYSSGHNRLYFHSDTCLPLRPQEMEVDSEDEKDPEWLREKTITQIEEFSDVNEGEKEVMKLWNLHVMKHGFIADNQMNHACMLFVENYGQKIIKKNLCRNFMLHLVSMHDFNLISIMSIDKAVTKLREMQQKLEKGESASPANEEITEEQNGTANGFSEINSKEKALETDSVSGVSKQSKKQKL
Chain of wild type PRC2 (wtPRC2) complex (Q09028 whole entry partner): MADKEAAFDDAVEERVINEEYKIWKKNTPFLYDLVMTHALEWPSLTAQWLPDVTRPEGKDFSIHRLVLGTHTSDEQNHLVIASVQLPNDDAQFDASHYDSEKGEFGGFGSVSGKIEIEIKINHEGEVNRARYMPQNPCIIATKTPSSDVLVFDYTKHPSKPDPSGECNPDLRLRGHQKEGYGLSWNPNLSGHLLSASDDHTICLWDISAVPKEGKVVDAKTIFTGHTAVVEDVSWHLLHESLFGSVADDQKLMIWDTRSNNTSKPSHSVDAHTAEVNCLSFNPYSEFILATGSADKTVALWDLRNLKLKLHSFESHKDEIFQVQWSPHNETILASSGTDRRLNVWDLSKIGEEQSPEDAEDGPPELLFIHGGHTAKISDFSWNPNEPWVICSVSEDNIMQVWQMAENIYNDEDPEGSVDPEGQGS
Chain of wild type PRC2 (wtPRC2) complex (Q6ZN18 whole entry partner): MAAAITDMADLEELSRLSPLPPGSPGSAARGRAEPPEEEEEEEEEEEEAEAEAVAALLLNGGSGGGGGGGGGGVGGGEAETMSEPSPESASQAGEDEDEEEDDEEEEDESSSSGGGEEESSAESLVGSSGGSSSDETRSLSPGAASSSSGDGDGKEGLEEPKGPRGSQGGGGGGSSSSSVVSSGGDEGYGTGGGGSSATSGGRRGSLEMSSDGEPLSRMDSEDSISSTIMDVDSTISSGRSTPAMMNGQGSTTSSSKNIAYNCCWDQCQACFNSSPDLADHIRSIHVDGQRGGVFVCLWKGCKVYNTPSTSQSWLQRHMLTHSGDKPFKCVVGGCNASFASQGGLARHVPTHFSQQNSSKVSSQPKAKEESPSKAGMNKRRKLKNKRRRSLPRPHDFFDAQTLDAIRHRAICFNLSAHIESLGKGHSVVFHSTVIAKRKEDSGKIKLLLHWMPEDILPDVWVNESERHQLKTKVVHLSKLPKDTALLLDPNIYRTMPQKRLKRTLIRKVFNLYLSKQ

IC50 [1, 3] [nM]	IC50 [2, 4] [nM]	IC50 (EED (1-441)-His protein; [5]) [nM]	SMILES	also measured
153	85.3	74.5	COc1cccc(F)c1CNc1ccc(-c2ccccc2CO)c2nncn12 [Example 238, (2-(5-((2-fluoro-6-methoxy benzyl)amino)-[1,2,4]triazolo[4,3-a]pyridin-8-yl)phenyl)methanol]	–
159	10.4	25.1	COc1cccc(F)c1CNc1ccc(-c2ccc(CNC(C)=O)nc2)c2nncn12 [Example 256, N-((5-(5-((2-fluoro-6-methoxybenzyl)amino)-[1,2,4]triazolo[4,3-a]pyridin-8-yl)pyridin-2-yl)methyl) acetamide]	–
164	43.8	25.3	COc1cccc(F)c1CNc1ccc(-c2ccc(NC(C)=O)nc2)c2nncn12 [Example 196, N-(5-(5-((2-fluoro-6-methoxybenzyl)amino)-[1,2,4]triazolo[4,3-a]pyridin-8-yl)pyridin-2-yl)acetamide]	–

The next lines start with the compound.

SMILES	IC50 [1, 3] [nM]	IC50 [2, 4] [nM]	IC50 (EED (1-441)-His protein; [5]) [nM]	also measured
COc1cccc(F)c1CNc1ccc(-c2cnn(C)c2C)c2nncn12 [Example 188, 8-(1,5-dimethyl-1H-pyrazol-4-yl)-N-(2-fluoro-6-methoxybenzyl)-[1,2,4]triazolo[4,3-a] pyridin-5-amine]	93.1	34.8	55.2	–
COc1cccc(F)c1CNc1ccc(-c2cnc(S(C)(=O)=O)cc2C)c2nncn12 [Example 184, N-(2-fluoro-6-methoxybenzyl)-8-(4-methyl-6-(methylsulfonyl)pyridin-3-yl)-[1,2,4]triazolo[4,3-a] pyridin-5-amine]	77.7	25	46.4	–
COc1ncccc1CNc1ccc(-c2cccnc2C)c2nncn12 [Example 328, N-((2-methoxypyridin-3-yl)methyl)-8-(2-methylpyridin-3-yl)-[1,2,4]triazolo[4,3-a] pyridin-5-amine]	284	76.3	73.5	–
COc1cccc(F)c1CNc1ccc(-c2cccnc2C(F)(F)F)c2nncn12 [Example 237, N-(2-fluoro-6-methoxybenzyl)-8-(2-(trifluoromethyl)pyridin-3-yl)-[1,2,4]triazolo[4,3-a] pyridin-5-amine]	116	116	86.9	–
COc1cccc(F)c1CNc1ccc(-c2cncn2C)c2nncn12 [Example 8]	–	–	–	IC50 [1, 6]: 35.2 nM; IC50 [2, 7]: 4.3 nM; IC50 (EED (1-441)-His protein; [8]): 10.6 nM
COc1cccc(F)c1CNc1ccc(-c2ccnc(F)c2C)c2nncn12 [Example 276, 8-(2-fluoro-3-methylpyridin-4-yl)-N-(2-fluoro-6-methoxybenzyl)-[1,2,4]triazolo[4,3-a] pyridin-5-amine]	50.5	8	13.9	–
COc1cccc(F)c1CNc1ccc(-c2cncc(O)c2)c2nncn12 [Example 207, 5-(5-((2-fluoro-6-methoxybenzyl)amino)-[1,2,4]triazolo[4,3-a]pyridin-8-yl) pyridin-3-ol]	467	74.8	24.9	–
COc1cccc(Cl)c1CNc1ccc(-c2cccnc2C)c2nncn12 [Example 335, N-(2-chloro-6-methoxybenzyl)-8-(2-methylpyridin-3-yl)-[1,2,4]triazolo[4,3-a] pyridin-5-amine]	254	318	84.5	–
COc1cccc(F)c1CNc1ccc(-c2nc(C)nn2C)c2nncn12 [Example 355, 8-(1,3-dimethyl-1H-1,2,4-triazol-5-yl)-N-(2-fluoro-6-methoxybenzyl)-[1,2,4] triazolo[4,3-a]pyridin-5-amine]	–	–	–	IC50 [1, 9]: 30.5 nM; IC50 [2, 10]: 11.7 nM; IC50 (EED (1-441)-His protein; [11]): 15.8 nM
COc1cccc(F)c1CNc1ccc(-c2ccc(S(=O)(=O)NCCO)cc2)c2nncn12 [Example 126, 4-(5-((2-fluoro-6-methoxybenzyl)amino)-[1,2,4]triazolo[4,3-a]pyridin-8-yl)-N-(2-hydroxyethyl) benzenesulfonamide]	–	–	–	IC50 [1, 6]: 1740 nM; IC50 [2, 7]: 5 nM; IC50 (EED (1-441)-His protein; [8]): 11.5 nM
COc1ccccc1CNc1ccc(-c2ccc(S(=O)(=O)N(C)C)cc2)c2nncn12 [Example 34, 4-(5-((2-methoxybenzyl)amino)-[1,2,4]triazolo[4,3-a]pyridin-8-yl)-N,N-dimethyl benzenesulfonamide]	–	–	–	IC50 [1, 6]: 358 nM; IC50 [2, 7]: 18.4 nM; IC50 (EED (1-441)-His protein; [8]): 4.5 nM
COc1cccc(F)c1CNc1ccc(-c2cncc(OCCCS(C)(=O)=O)c2)c2nncn12 [Example 198, N-(2-fluoro-6-methoxybenzyl)-8-(5-(3-(methylsulfonyl)propoxy)pyridin-3-yl)-[1,2,4]triazolo [4,3-a]pyridin-5-amine]	235	32	34.5	–
COc1cccc(F)c1CNc1ccc(-c2ccnn2C)c2nncn12 [Example 1, N-(2-Fluoro-6-methoxybenzyl)-8-(1-methyl-1H-pyrazol-5-yl)-[1,2,4]triazolo[4,3-a]pyridin-5-amine]	–	–	–	IC50 [1, 6]: 11.2 nM; IC50 [2, 7]: 18.1 nM; IC50 (EED (1-441)-His protein; [8]): 27.7 nM
COc1ccccc1CNc1ccc(-c2ccnnc2)c2nncn12 [Example 26, N-(2-methoxybenzyl)-8-(pyridazin-4-yl)-[1,2,4] triazolo[4,3-a]pyridin-5-amine]	–	–	–	IC50 [1, 6]: 498 nM; IC50 [2, 7]: 47.7 nM; IC50 (EED (1-441)-His protein; [8]): 73.4 nM
COc1cccc(F)c1CNc1ccc(-c2ccnn2C(C)C)c2nncn12 [Example 232, N-(2-fluoro-6-methoxybenzyl)-8-(1-isopropyl-1H-pyrazol-5-yl)-[1,2,4] triazolo[4,3-a]pyridin-5-amine]	159	62.2	50	–
COc1cccc(F)c1CNc1ccc(-c2cnccc2Cl)c2nncn12 [Example 236, 8-(4-chloropyridin-3-yl)-N-(2-fluoro-6-methoxybenzyl)-[1,2,4]triazolo[4,3-a]pyridin-5-amine]	116	66.3	83.6	–
COc1cccc(F)c1CNc1ccc(-c2cnn(C(C)C)c2C)c2nncn12 [Example 289, N-(2-fluoro-6-methoxybenzyl)-8-(1-isopropyl-5-methyl-1H-pyrazol-4-yl)-[1,2,4] triazolo[4,3-a]pyridin-5-amine]	128	30.3	28.4	–
COc1ccncc1-c1ccc(NCc2c(F)cccc2OC)n2cnnc12 [Example 190, N-(2-fluoro-6-methoxybenzyl)-8-(4-methoxypyridin-3-yl)-[1,2,4] triazolo[4,3-a]pyridin-5-amine]	240	13.1	41.5	–
COc1ccccc1CNc1ccc(-c2ccc(N3CCN(C)CC3)cc2)c2nncn12 [Example 22, N-(2-methoxybenzyl)-8-(4-(4-methylpiperazin-1-yl)phenyl)-[1,2,4]triazolo[4,3-a] pyridin-5-amine]	–	–	–	IC50 [1, 6]: 365 nM; IC50 [2, 7]: 42.3 nM; IC50 (EED (1-441)-His protein; [8]): 56.2 nM
COc1cccc(F)c1CNc1ccc(-c2cc(C#N)cnc2C)c2nncn12 [Example 350, 5-(5-((2-fluoro-6-methoxybenzyl)amino)-[1,2,4]triazolo[4,3-a]pyridin-8-yl)-6-methylnicotinonitrile]	–	–	–	IC50 [1, 9]: 45.4 nM; IC50 [2, 10]: 16.4 nM; IC50 (EED (1-441)-His protein; [11]): 32.2 nM
COc1ccccc1CNc1ccc(-c2ccc(C(C)N3CCCC3)cc2)c2nncn12 (stereo not drawn) [Example 32, N-(2-methoxybenzyl)-8-(4-(1-(pyrrolidin-1-yl)ethyl)phenyl)-[1,2,4] triazolo[4,3-a]pyridin-5-amine]	–	–	–	IC50 [1, 6]: 142 nM; IC50 [2, 7]: 38 nM; IC50 (EED (1-441)-His protein; [8]): 17.4 nM
COc1cc(F)cc(F)c1CNc1ccc(-c2cnc(C)nc2OC)c2nncn12 [Example 373, N-(2,4-difluoro-6-methoxybenzyl)-8-(4-methoxy-2-methylpyrimidin-5-yl)-[1,2,4] triazolo[4,3-a]pyridin-5-amine]	–	–	–	IC50 [1, 9]: 494 nM; IC50 [2, 10]: 64.1 nM; IC50 (EED (1-441)-His protein; [11]): 48.7 nM
COc1cccc(F)c1CNc1ccc(-c2cnc(F)cc2C)c2nncn12 [Example 248, 8-(6-fluoro-4-methylpyridin-3-yl)-N-(2-fluoro-6-methoxybenzyl)-[1,2,4]triazolo[4,3-a] pyridin-5-amine]	81.8	9.6	16.5	–
CCN1CCC(S(=O)(=O)c2ccc(-c3ccc(NCc4ccccc4OC)n4cnnc34)cn2)CC1 [Example 143, 8-(6-((1-ethylpiperidin-4-yl)sulfonyl)pyridin-3-yl)-N-(2-methoxybenzyl)-[1,2,4] triazolo[4,3-a]pyridin-5-amine]	–	–	–	IC50 [1, 6]: 323 nM; IC50 [2, 7]: 53.2 nM; IC50 (EED (1-441)-His protein; [8]): 31.1 nM
COc1cccc(F)c1CNc1ccc(-c2cccnc2CF)c2nncn12 [Example 294, N-(2-fluoro-6-methoxybenzyl)-8-(2-(fluoromethyl)pyridin-3-yl)-[1,2,4] triazolo[4,3-a]pyridin-5-amine]	116	9.4	23.9	–
